According to US10435400B2, “2,4-disubstituted phenylene-1,5-diamine derivatives and applications thereof, and pharmaceutical compositions and pharmaceutically acceptable compositions prepared therefrom” (SHANGHAI HAIYAN PHARMACEUTICAL TECHNOLOGY CO., LTD., priority 2014, dated 2019):
Read-outs that look alike come from different tables or passages of the source.

How the values were obtained:
A431 cells [1] = assay: Cytostatic activity by MTT method, A431 cells; details: read-out: A431 cells (IC50/nM);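 also: viability read by MTT reduction after compound exposure, with MTT incubated for a further 4 h at 37 °C under 5% CO2 in 96-well plates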
H1975 cells [2] = assay: Cytostatic activity by MTT method, H1975 cells; format: cell-based; details: MTT; for IC50: 72 h, read-out: H1975 cells (IC50/nM); for selective inhibitory activity against the cell growth [IC50 (A431 cells)/IC50 (H1975 cells)]: ratio of IC50 values
NIH3T3 cells = assay: Cytotoxicity by MTT method, NIH3T3 cells; format: cell-based; details: cytotoxicity, MTT, 72 h, read-out: NIH3T3 cells MTT assay (IC50/nM);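 also: cells grown in 96-well plates with compound for 72 h, then given MTT for a further 4 h at 37 °C under 5% CO2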
EGFR WT kinase = EGFR WT kinase (Homo sapiens (Human), UniProt P00533); assay: Wild type EGFR kinase inhibition test (z-lyte); format: biochemical; details: 10 μM ATP
A431 cells [3] = assay: ELISA cell activity, EGF-stimulated A431 cells; format: cell-based; details: ELISA, compound 1 h then EGF 45 minutes, read-out: A431 cells (IC50/nM);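 also: Serum-starved A431 cells pretreated with compound for 1 h, then stimulated with EGF for 45 min, lysates read by ELISA (OD450 minus OD570), EGF-only wells as control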
H1975 cells [4] = assay: ELISA screening EGFR T790M inhibitor for cell activity, H1975 cells; format: cell-based; details: ELISA; for IC50: compound 1 h, read-out: H1975 cells (IC50/nM); for Selective inhibitory activities of target on cellular level [IC50 (A431 cells)/IC50 (H1975 cells)]: ratio of IC50 values

EGFR WT kinase, sequence (P00533 25-1210): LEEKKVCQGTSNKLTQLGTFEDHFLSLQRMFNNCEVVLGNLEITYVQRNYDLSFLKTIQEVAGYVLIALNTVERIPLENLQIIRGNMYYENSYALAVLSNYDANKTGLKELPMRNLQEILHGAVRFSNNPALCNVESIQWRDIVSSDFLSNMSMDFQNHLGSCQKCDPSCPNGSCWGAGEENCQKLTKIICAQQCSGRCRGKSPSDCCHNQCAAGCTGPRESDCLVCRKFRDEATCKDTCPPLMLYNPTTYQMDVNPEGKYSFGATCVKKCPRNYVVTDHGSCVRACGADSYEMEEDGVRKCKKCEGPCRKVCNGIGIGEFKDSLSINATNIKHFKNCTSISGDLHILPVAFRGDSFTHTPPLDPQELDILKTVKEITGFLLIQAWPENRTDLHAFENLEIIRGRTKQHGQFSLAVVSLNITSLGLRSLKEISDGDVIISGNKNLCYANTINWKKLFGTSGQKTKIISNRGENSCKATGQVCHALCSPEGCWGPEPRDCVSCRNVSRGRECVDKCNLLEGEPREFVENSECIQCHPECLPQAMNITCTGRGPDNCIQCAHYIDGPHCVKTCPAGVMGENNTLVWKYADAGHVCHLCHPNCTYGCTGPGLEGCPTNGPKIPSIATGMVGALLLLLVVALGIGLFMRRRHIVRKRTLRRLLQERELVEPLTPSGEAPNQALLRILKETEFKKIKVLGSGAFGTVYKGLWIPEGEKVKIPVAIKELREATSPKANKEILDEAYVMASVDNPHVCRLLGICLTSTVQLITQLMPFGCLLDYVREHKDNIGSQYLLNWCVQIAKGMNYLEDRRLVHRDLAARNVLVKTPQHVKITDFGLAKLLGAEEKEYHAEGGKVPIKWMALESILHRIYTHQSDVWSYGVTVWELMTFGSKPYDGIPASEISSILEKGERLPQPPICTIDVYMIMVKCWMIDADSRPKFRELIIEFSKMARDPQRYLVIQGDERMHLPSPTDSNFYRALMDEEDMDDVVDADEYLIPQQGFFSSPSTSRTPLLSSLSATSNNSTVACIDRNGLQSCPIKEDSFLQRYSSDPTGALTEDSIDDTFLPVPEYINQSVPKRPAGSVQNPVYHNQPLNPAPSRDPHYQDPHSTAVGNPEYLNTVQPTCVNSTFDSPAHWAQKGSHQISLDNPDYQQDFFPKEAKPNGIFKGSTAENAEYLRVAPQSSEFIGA

SMILES	IC50 (A431 cells [1]; MTT, 72 h)	IC50 (H1975 cells [2])	selective inhibitory activity against the cell growth [IC50 (A431 cells)/IC50 (H1975 cells)] (H1975 cells [2])	IC50 (EGFR WT kinase)	IC50 (A431 cells [1]; Homo sapiens, A-431, 72 h)	IC50 (H1975 cells [2]; Homo sapiens, NCI-H1975)	IC50 (A431 cells [3]; Homo sapiens, A-431)	IC50 (H1975 cells [4]; Homo sapiens, NCI-H1975)	Selective inhibitory activities of target on cellular level [IC50 (A431 cells)/IC50 (H1975 cells)] (H1975 cells [4])	IC50 (A431 cells [3])	IC50 (H1975 cells [4])	IC50 (NIH3T3 cells)	IC50 (NIH3T3 cells; Mus musculus, NIH3T3)
C=CC(=O)Nc1cc(Nc2nccc(-c3cnc4[nH]ccc4c3)n2)c(OC)cc1N(C)CCN(C)C [Compound Z-30]	1110 nM	25 nM	44.4	–	–	–	–	–	–	–	–	5790 nM	–
C=CC(=O)Nc1cc(Nc2ncc(OC)c(-c3cnc4c(cnn4C)c3)n2)c(OC)cc1N(C)CCN(C)C [Compound Z-44]	1810 nM	32 nM	56.7	30 nM	–	–	–	–	–	–	–	8880 nM	–
C=CC(=O)Nc1cc(Nc2ncc(Cl)c(-c3c(C)nn(C)c3C)n2)c(OC)cc1N(C)CCN(C)C [Compound Z-91, N-(5-(5-chloro-4-(1,3,5-trimethyl-1H-pyrazol-4-yl)pyrimidin-2-ylamino)-2-((2-(dimethylamino)ethyl)(methyl)amino)-4-methoxyphenyl)acrylamide]	–	–	100.3	195 nM	3610 nM	36 nM	3280 nM	90 nM	36.4	–	–	–	> 10000 nM
C=CC(=O)Nc1cc(Nc2ncc(C(F)(F)F)c(-c3cnc4c(ccn4C)c3)n2)c(OC)cc1N(C)CCN(C)C [Compound Z-22, N-(2-((2-(dimethylamino)ethyl)(methyl)amino)-4-methoxy-5-((4-(1-methyl-1H-pyrrolo[2,3-b]pyridin-5-yl)-5-(trifluoromethyl)pyrimidin-2-yl)amino)phenyl)acrylamide]	–	–	65.5	57 nM	1900 nM	29 nM	1230 nM	23 nM	53.6	–	–	–	–
C=CC(=O)Nc1cc(Nc2ncc(Cl)c(-c3cnn(C)c3)n2)c(OC)cc1N(C)CCN(C)C [Compound Z-19, N-(5-((5-chloro-4-(1-methyl-1H-pyrazol-4-yl)pyrimidin-2-yl)amino)-2-((2-(dimethylamino)ethyl)(methyl)amino)-4-methoxyphenyl)acrylamide]	–	–	–	–	757 nM	22 nM	675 nM	21 nM	–	–	–	–	4510 nM
C=CC(=O)Nc1cc(Nc2ncc(Cl)c(-c3cnc4c(ccn4C4CC4)c3)n2)c(OC)cc1N(C)CCN(C)C [Compound Z-126]	495 nM	10 nM	49.5	7 nM	–	–	–	–	11.5	229 nM	20 nM	4910 nM	–
C=CC(=O)Nc1cc(Nc2ncc(Cl)c(-c3ccn(C)c3)n2)c(OC)cc1N(C)CCN(C)C [Compound Z-99, N-(5-(5-chloro-4-(1-methyl-1H-pyrrol-3-yl)pyrimidin-2-ylamino)-2-((2-(dimethylamino)ethyl)(methyl)amino)-4-methoxyphenyl)acrylamide]	–	–	26	38 nM	1040 nM	40 nM	663 nM	57 nM	11.6	–	–	–	5990 nM
C=CC(=O)Nc1cc(Nc2ncc(F)c(-c3cnc4c(c3)c(Cl)cn4C)n2)c(OC)cc1N(C)CCN(C)C [Compound Z-123]	1040 nM	26 nM	40.2	3 nM	–	–	–	–	–	–	–	4740 nM	–
C=CC(=O)Nc1cc(Nc2nccc(-c3cnc4c(ccn4C)c3)n2)c(OC)cc1N(C)CCCN(C)C [Compound Z-108]	2900 nM	77 nM	37.7	–	–	–	–	–	–	–	–	3620 nM	–
C=CC(=O)Nc1cc(Nc2nccc(-c3cnc4c(ccn4C)c3)n2)c(OC)cc1N(C)CCN(C)CC [Compound Z-105]	–	–	–	7 nM	–	–	–	–	6.5	181 nM	28 nM	9360 nM	–

The next lines start with results.

IC50 (A431 cells [1]; MTT, 72 h)	IC50 (H1975 cells [2])	selective inhibitory activity against the cell growth [IC50 (A431 cells)/IC50 (H1975 cells)] (H1975 cells [2])	IC50 (EGFR WT kinase)	IC50 (A431 cells [1]; Homo sapiens, A-431, 72 h)	IC50 (H1975 cells [2]; Homo sapiens, NCI-H1975)	IC50 (A431 cells [3]; Homo sapiens, A-431)	IC50 (H1975 cells [4]; Homo sapiens, NCI-H1975)	Selective inhibitory activities of target on cellular level [IC50 (A431 cells)/IC50 (H1975 cells)] (H1975 cells [4])	IC50 (A431 cells [3])	IC50 (H1975 cells [4])	SMILES	IC50 (NIH3T3 cells)	IC50 (NIH3T3 cells; Mus musculus, NIH3T3)
–	–	–	–	597 nM	15 nM	1020 nM	11 nM	–	–	–	C=CC(=O)Nc1cc(Nc2ncc(Cl)c(-c3cn[nH]c3)n2)c(OC)cc1N1CCC(N(C)C)CC1 [Compound Z-102, N-(5-(5-chloro-4-(1H-pyrazol-4-yl)pyrimidin-2-ylamino)-2-(4-(dimethylamino)piperidin-1-yl)-4-methoxyphenyl)acrylamide]	–	–
1780 nM	38 nM	46.8	13 nM	–	–	–	–	–	–	–	C=CC(=O)Nc1cc(Nc2nccc(-c3cnc4c(ccn4C(C)C)c3)n2)c(OC)cc1N(C)CCN(C)C [Compound Z-124]	3240 nM	–
–	–	6.8	–	2970 nM	437 nM	3110 nM	1140 nM	2.7	–	–	C=CC(=O)Nc1cc(Nc2ncc(OC)c(-c3cnc4ccccc4c3)n2)c(OC)cc1N1CCC(N(C)C)CC1 [compound 3, reference compound]	–	–
660 nM	–	–	21 nM	–	–	–	–	–	200 nM	15 nM	C=CC(=O)Nc1cc(Nc2ncc(Cl)c(-c3cnn(C)c3C)n2)c(OC)cc1N(C)CCN(C)C [Compound Z-55]	5420 nM	–
685 nM	13 nM	52.7	4 nM	–	–	–	–	16.1	193 nM	12 nM	C=CC(=O)Nc1cc(Nc2nccc(-c3cnc4c(ccn4C)c3)n2)c(OC)cc1N(C)CCNC [Compound Z-106]	–	–
–	–	97	4 nM	871 nM	9 nM	153 nM	10 nM	15.3	–	–	C=CC(=O)Nc1cc(Nc2nccc(-c3cnc4c(ccn4C)c3)n2)c(OC)cc1N(C)CCN(C)C [Compound Z-16, N-(2-((2-(dimethylamino)ethyl)(methyl)amino)-4-methoxy-5-((4-(1-methyl-1H-pyrrolo[2,3-b]pyridin-5-yl)pyrimidin-2-yl)amino)phenyl)acrylamide]	–	> 10000 nM
1300 nM	19 nM	68.5	8 nM	–	–	–	–	9.1	164 nM	18 nM	C=CC(=O)Nc1cc(Nc2nccc(-c3cnc4c(ccn4C)c3)n2)c(OC)cc1OCCN(C)C [Compound Z-117]	> 10000 nM	–
918 nM	16 nM	57.4	33 nM	–	–	–	–	16.1	660 nM	41 nM	C=CC(=O)Nc1cc(Nc2ncc(Cl)c(-c3cnc4c(cnn4C)c3)n2)c(OC)cc1N(C)CCN(C)C [Compound Z-39]	8890 nM	–
–	–	15.2	407 nM	1640 nM	108 nM	–	–	–	–	–	C=CC(=O)Nc1cc(Nc2ncc(Cl)c(-c3ccn(C)c3)n2)c(OC)cc1N1CCC(N(C)C)CC1 [Compound Z-98, N-(5-(5-chloro-4-(1-methyl-1H-pyrrol-3-yl)pyrimidin-2-ylamino)-2-(4-(dimethylamino)piperidin-1-yl)-4-methoxyphenyl)acrylamide]	–	4360 nM
–	–	–	20 nM	–	–	–	–	30.8	954 nM	31 nM	C=CC(=O)Nc1cc(Nc2ncc(F)c(-c3cnc4c(cnn4C)c3)n2)c(OC)cc1N(C)CCN(C)C [Compound Z-41]	> 10000 nM	–
–	–	24	–	6660 nM	277 nM	199 nM	241 nM	0.83	–	–	C=CC(=O)Nc1cc(Nc2nccc(-c3cccnc3)n2)c(OC)cc1N1CCC(N(C)C)CC1 [compound 2, reference compound]	–	–
–	–	45.5	10 nM	773 nM	17 nM	194 nM	34 nM	5.7	–	–	C=CC(=O)Nc1cc(Nc2nccc(-c3cnc4c(cnn4C)c3)n2)c(OC)cc1N(C)CCN(C)C [Compound Z-6, N-(2-((2-(dimethylamino)ethyl)(methyl)amino)-4-methoxy-5-(4-(1-methyl-1H-pyrazolo[3,4-b]pyridin-5-yl)pyrimidin-2-ylamino)phenyl)acrylamide]	–	–
1410 nM	37 nM	38.2	16 nM	–	–	–	–	15.5	855 nM	55 nM	C=CC(=O)Nc1cc(Nc2nccc(-c3cnc4c(ccn4C)c3)n2)c(OC)cc1N(C)CCN(CC)CC [Compound Z-107]	–	–
